Values quoted from earlier work, collected in the PKSmart pharmacokinetics tables (Seal et al. 2025).
Where a SMILES comes first, the peptide text is derived from it. Bridges are numbered along the chain shown (N, C = ends). [ ]: non-standard residue; d: D form. ξ: configuration not given here. ξ2Nal = NC(Cc1ccc2ccccc2c1)C(=O)O; ξW = NC(Cc1c[nH]c2ccccc12)C(=O)O; ξThr(3R) = C[C@@H](O)C(N)C(=O)O; ξY = NC(Cc1ccc(O)cc1)C(=O)O; ξK = NCCCCC(N)C(=O)O; ξV = CC(C)C(N)C(=O)O; ξC = NC(CS)C(=O)O

Assay: Lombardo, Berellini, Obach 2018, Drug Metab Dispos 46:1466, doi 10.1124/dmd.118.082966
Settings: human; for MRT / Vd / clearance / half-life: in vivo, iv; for fraction unbound: plasma

| Structure (SMILES) | MRT | Vd | clearance | half-life | fraction unbound |
| --- | --- | --- | --- | --- | --- |
| CC(C)C1NC(=O)C(CCCCN)NC(=O)C(Cc2c[nH]c3ccccc23)NC(=O)C(Cc2ccc(O)cc2)NC(=O)C(NC(=O)C(N)Cc2ccc3ccccc3c2)CSSCC(C(=O)NC(C(N)=O)[C@@H](C)O)NC1=O (stereo partly drawn) (H-[ξ2Nal][ξC][ξY][ξW][ξK][ξV][ξC][ξThr(3R)]-NH2; disulfide 2-7) | 0.57 h | 0.2 L/kg | 5.7 mL/min/kg | 1.03 h |  |
| COc1ccc2cc1Oc1cc3c(cc1OC)CC[N+](C)(C)[C@H]3Cc1ccc(cc1)Oc1c(OC)c(OC)cc3c1[C@@H](C2)[N+](C)(C)CC3 | 5.6 h | 0.4 L/kg | 1.2 mL/min/kg | 5.1 h | 0.65 |
| CCC(=O)NC[C@@H]1C[C@H]1c1cccc2c1CCO2 | 0.62 h | 0.33 L/kg | 9.04 mL/min/kg | 0.75 h |  |
| COC(C(=O)N1Cc2[nH]nc(NC(=O)c3ccc(N4CCN(C)CC4)cc3)c2C1)c1ccccc1 (stereo unspecified) | 6.8 h | 2.5 L/kg | 6.1 mL/min/kg | 25 h |  |
| COc1cc(CC(=O)NCC(=O)N(CCC(=O)O)Cc2ccc(OC)c(OC)c2)ccc1NC(=O)Nc1ccccc1C | 0.38 h | 0.25 L/kg | 11 mL/min/kg | 1.6 h |  |
| CN(CCC(=O)/C=C/c1ccc(O)cc1)CCc1ccc2c(c1)OCO2 | 0.05 h | 2.13 L/kg | 713 mL/min/kg | 0.1 h |  |
| O=S(=O)(Nc1ccccc1)c1cccc(/C=C/C(O)=NO)c1 | 0.6 h | 0.8 L/kg | 23.6 mL/min/kg | 1.6 h | 0.06 |
| CCc1cnn2c(NCc3ccc[n+]([O-])c3)cc(N3CCCC[C@H]3CCO)nc12 | 1.1 h | 0.32 L/kg | 4.65 mL/min/kg | 2.1 h |  |
| CC(C)C1C(=O)NC(CCCNC(=N)N)C(=O)NCC(=O)NC(CC(=O)O)C(=O)NC(Cc2ccccc2)C(=O)N1C (stereo unspecified) | 3.67 h | 0.26 L/kg | 1.18 mL/min/kg | 3.6 h |  |
| O[C@@H](CNC[C@H](O)[C@H]1CCc2cc(F)ccc2O1)[C@@H]1CCc2cc(F)ccc2O1 | 13 h | 11 L/kg | 14 mL/min/kg | 10 h | 0.02 |
| CN1[C@@H]2C[C@@H](OC(=O)C(CO)c3ccccc3)C[C@H]1[C@@H]1O[C@@H]12 (stereo partly specified) | 3.2 h |  |  |  |  |
| C/C(=C\c1csc(C)n1)[C@@H]1C[C@@H]2O[C@]2(C)CCC[C@H](C)[C@H](O)C(C)C(=O)C(C)(C)[C@@H](O)CC(=O)N1 (stereo partly specified) | 18 h | 11 L/kg | 10 mL/min/kg | 17 h | 0.2 |
| O=c1[nH]cnc2c1ncn2[C@H]1CC[C@@H](CO)O1 | 1.2 h |  | 11 mL/min/kg | 1.4 h |  |
| O=C(O)C(Cl)Cl | 0.6 h | 0.19 L/kg | 5.3 mL/min/kg | 0.65 h |  |
| CC(O)C(=O)Nc1c(I)c(C(=O)NC(CO)CO)c(I)c(C(=O)NC(CO)CO)c1I (stereo unspecified) | 2.5 h | 0.28 L/kg | 1.9 mL/min/kg | 2.1 h | 1 |
| COC(=O)NC(C(=O)N1CCCC1C(=O)Nc1ccc([C@@H]2CC[C@@H](c3ccc(NC(=O)C4CCCN4C(=O)C(NC(=O)OC)C(C)C)cc3)N2c2ccc(C(C)(C)C)cc2)cc1)C(C)C (stereo partly specified) | 23.1 h | 2.32 L/kg | 1.68 mL/min/kg | 28.5 h | 0.001 |
| COc1c(N2C[C@@H](C)C[C@H](N)C2)ccc2c(=O)c(C(=O)O)cn(C3CC3)c12 | 8.4 h | 1.9 L/kg | 3.8 mL/min/kg | 13.5 h |  |
| C[C@@H]1C[C@H]2[C@H]3CC=C4CC(=O)C=C[C@]4(C)[C@@]3(Cl)[C@@H](O)C[C@]2(C)[C@@]1(OC(=O)c1ccco1)C(=O)CCl | 2.9 h | 2.2 L/kg | 12.7 mL/min/kg | 4.4 h |  |
| Cc1ccc(Sc2ccccc2N2CCNCC2)c(C)c1 | 101 h | 35.3 L/kg | 5.8 mL/min/kg | 72 h | 0.02 |
| CCOc1ccccc1O[C@H](c1ccccc1)[C@H]1CNCCO1 | 13 h | 0.65 L/kg | 0.82 mL/min/kg | 10 h |  |
| CCOc1ccc2c(c1)[C@]1(CC[C@H](OCCN3CCOCC3)CC1)C(=O)N2S(=O)(=O)c1ccc(C(=O)NC(C)(C)C)cc1OC | 9.4 h | 7 L/kg | 12.3 mL/min/kg | 10.4 h | 0.1 |
| O=C(O[C@H]1C[N+]2(CCCOc3ccccc3)CCC1CC2)C(O)(c1cccs1)c1cccs1 | 1.76 h | 4.3 L/kg | 48.5 mL/min/kg |  |  |
| CCCCc1nc(C)c(CC(=S)N(C)C)c(=O)n1Cc1ccc(-c2ccccc2-c2nnn[nH]2)cc1 | 1.1 h | 0.6 L/kg | 9.6 mL/min/kg | 5.5 h |  |
| C=CCc1ccccc1OCC(O)CNC(C)C (stereo unspecified) | 3.6 h | 3.2 L/kg | 15 mL/min/kg | 2.5 h |  |

| Structure (SMILES) | MRT | Vd | clearance | half-life | fraction unbound |
| --- | --- | --- | --- | --- | --- |
| OCCN1CCN(CC/C=C2/c3ccccc3Sc3ccc(C(F)(F)F)cc32)CC1 |  |  | 4.14 mL/min/kg | 34.2 h |  |
| CON=C(C(=O)NC1C(=O)N2C(C(=O)O)=C(C)CS[C@H]12)c1csc(N)n1 (stereo partly specified) | 2.5 h | 0.28 L/kg | 1.9 mL/min/kg | 2.1 h | 0.78 |
| C=CCOc1ccccc1OC[C@H](O)CNC(C)C | 1.56 h | 0.72 L/kg | 7.7 mL/min/kg | 1.09 h | 0.19 |
| C=C1CC[C@@]2(O)[C@H]3Cc4ccc(O)c5c4[C@@]2(CCN3CC2CC2)[C@H]1O5 |  |  |  |  | 0.65 |
| Cc1c[nH]c2c(O)cc3c(c12)[C@H](CCl)CN3C(=O)c1cc2cc(NC(=O)Nc3ccc4[nH]c(C(=O)N5C[C@@H](CCl)c6c5cc(O)c5[nH]cc(C)c65)cc4c3)ccc2[nH]1 | 1.7 h | 0.05 L/kg | 0.5 mL/min/kg | 1.6 h |  |
| CO[C@H]1[C@@H](O)[C@H](N)[C@@H](O[C@H]2O[C@H]([C@H](C)N)CC[C@H]2N)[C@H](O)[C@H]1N(C)C(=O)CN | 2.8 h | 0.23 L/kg | 1.37 mL/min/kg | 2 h |  |
| N#Cc1ccc2[nH]cc(CCCCN3CCN(c4ccc5oc(C(N)=O)cc5c4)CC3)c2c1 | 21.5 h | 4.85 L/kg | 3.76 mL/min/kg | 15.7 h | 0.03 |
| CO[C@@]1(NC(=O)C(C(=O)O)c2ccsc2)C(=O)N2C(C(=O)O)C(C)(C)S[C@@H]21 (stereo partly specified) | 5.2 h | 0.11 L/kg | 0.34 mL/min/kg | 4.1 h | 0.21 |
| NC1CCN(c2c(F)cc3c(=O)c(C(=O)O)cn(C4CC4)c3c2Cl)C1 (stereo unspecified) | 6.7 h | 1.9 L/kg | 4.7 mL/min/kg | 5.4 h |  |
| OC[C@H]1O[C@@H]2O[C@H]3[C@H](O)[C@@H](O)[C@@H](O[C@H]4[C@H](O)[C@@H](O)[C@@H](O[C@H]5[C@H](O)[C@@H](O)[C@@H](O[C@H]6[C@H](O)[C@@H](O)[C@@H](O[C@H]7[C@H](O)[C@@H](O)[C@@H](O[C@H]8[C@H](O)[C@@H](O)[C@@H](O[C@H]1[C@H](O)[C@H]2O)O[C@@H]8CO)O[C@@H]7CO)O[C@@H]6CO)O[C@@H]5CO)O[C@@H]4CO)O[C@@H]3CO | 1.9 h | 0.21 L/kg | 1.8 mL/min/kg | 1.6 h |  |
| CC(C)NCC(O)c1cc(O)cc(O)c1 (stereo unspecified) | 7.14 h | 6.03 L/kg | 14.1 mL/min/kg | 6.41 h | 0.9 |
| CC[C@H]1CN2CC[C@H]1C[C@@H]2[C@@H](O)c1ccnc2ccc(OC)cc12 | 11 h | 2.8 L/kg | 4.2 mL/min/kg | 5.7 h | 0.22 |
| Cc1cc(O)c2c(=O)c3c(O)cc(O)c4c5c(O)cc(O)c6c(=O)c7c(O)cc(CO)c8c1c2c(c34)c(c65)c78 | 15 h | 0.56 L/kg | 0.62 mL/min/kg | 20 h |  |
| CNC(=O)c1c(I)c(NC(C)=O)c(I)c(C(=O)O)c1I | 1.2 h | 0.17 L/kg | 2.4 mL/min/kg | 1.3 h |  |
| O=C1c2ccc3ccccc3c2C(=O)N1CCNCCCNCCN1C(=O)c2ccc3ccccc3c2C1=O | 35.2 h | 12 L/kg | 5.7 mL/min/kg | 52.6 h |  |
| COc1cccc2c1c(NS(=O)(=O)c1ccc(Cl)s1)nn2Cc1cccc(CNC(=O)C(C)(C)O)c1 | 5.43 h | 1.65 L/kg | 5.1 mL/min/kg | 13.5 h |  |
| CCCCCCCCCCCCCCC[C@@H](O)[C@H](C)N | 8.89 h | 30.7 L/kg | 57.6 mL/min/kg | 29.7 h |  |
| CCc1c(O)cc(O)c(C(=O)c2ccc(OCCN3CCOCC3)c(OC)c2)c1CC(=O)N(CCOC)CCOC | 3.21 h | 1.32 L/kg | 6.87 mL/min/kg | 5.94 h |  |
| CCOc1cc([C@@H](CS(C)(=O)=O)N2C(=O)c3cccc(CC(C)=O)c3C2=O)ccc1OC |  |  | 2.38 mL/min/kg | 6.03 h | 0.32 |
| O=C1c2cccc3c2[C@H](CCC3)CN1[C@@H]1CN2CCC1CC2 | 40 h | 6.3 L/kg | 2.6 mL/min/kg | 39 h | 0.38 |
| Cc1onc(-c2ccccc2)c1C(=O)NC1C(=O)N2C(C(=O)O)C(C)(C)S[C@H]12 (stereo partly specified) | 0.5 h | 0.19 L/kg | 6.3 mL/min/kg | 0.7 h | 0.07 |
| C[C@@H](Cc1ccccc1)NC(=O)C(N)CCCCN (stereo partly specified) | 0.6 h | 0.6 L/kg | 17 mL/min/kg | 1.2 h |  |
| O=S(=O)(c1cccc2cnccc12)N1CCCNCC1 | 0.26 h | 1.22 L/kg |  |  |  |
